# “And” between values parts separate entries of the source, which are not always exact repeats. Equal values may be shown once.
# Target: Sirt6 (Homo sapiens, UniProt Q8N6T7)
# Assay: Sirt6-dependent peptide deacetylation, FLUOR DE LYS / Sirt6 fluorometric activity kit
# Format: biochemical
# Settings: mean ± SD, at least two independent experiments; for Activation Fold 30 μM: compound at 30 μM; for Activation Fold 100 μM: compound at 100 μM
# Protocol: Sirt6/Sirt1/Sirt2/Sirt3 activity was tested by Activity Assay Kits (Abcam) according to the manufacturer's instruction with minor modification. […] All experiments were conducted at room temperature.
# Sequence of Sirt6 (Q8N6T7 whole entry): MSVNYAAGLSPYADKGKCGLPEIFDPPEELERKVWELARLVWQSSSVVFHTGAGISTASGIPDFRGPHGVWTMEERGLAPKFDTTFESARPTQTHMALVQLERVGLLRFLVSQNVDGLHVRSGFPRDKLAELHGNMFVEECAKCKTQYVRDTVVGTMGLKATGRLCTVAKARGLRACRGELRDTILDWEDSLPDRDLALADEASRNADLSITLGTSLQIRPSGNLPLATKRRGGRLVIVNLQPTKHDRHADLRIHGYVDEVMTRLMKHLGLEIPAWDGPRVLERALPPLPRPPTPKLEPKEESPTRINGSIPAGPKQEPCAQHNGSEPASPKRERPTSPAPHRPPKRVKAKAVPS
SMILES,Activation Fold 30 μM,Activation Fold 100 μM
"O=C(CCl)N1CCN(c2ncccc2C2Nc3ccccc3-n3cccc32)CC1 (stereo not drawn) [Compound 42, 2-Chloro-1-(4-(3-(4,5-dihydropyrrolo[1,2-a]quinoxalin-4-yl)pyridin-2-yl)piperazin-1-yl)ethan-1-one]",1.93 ± 0.02 fold,2.84 ± 0.28 fold
"Clc1ncccc1C1Nc2ccccc2-n2cccc21 (stereo not drawn) [Compound 14, 4-(2-Chloropyridin-3-yl)-4,5-dihydropyrrolo[1,2-a]quinoxaline]",–,1.04 ± 0.02 fold
"CN(C)CCN1CCN(c2ncccc2C2Oc3ccc(F)cc3-n3cccc32)CC1 (stereo not drawn) [Compound 70, 2-(4-(3-(8-Fluoro-4H-benzo[b]pyrrolo[1,2-d][1,4]oxazin-4-yl)pyridin-2-yl)piperazin-1-yl)-N,N-dimethylethan-1-amine]",1.84 ± 0.04 fold,2.53 fold and 2.53 ± 0.05 fold
"COc1ccc2c(c1)-n1cccc1C(c1cccnc1N1CCN(CCN(C)C)CC1)O2 (stereo not drawn) [Compound 69, 2-(4-(3-(8-Methoxy-4H-benzo[b]pyrrolo[1,2-d][1,4]oxazin-4-yl)pyridin-2-yl)piperazin-1-yl)-N,N-dimethylethan-1-amine]",4.51 ± 0.06 fold,5.65 ± 0.22 fold
"CN(C)C(=O)CN1CCN(c2ncccc2C2Nc3ccccc3-n3cccc32)CC1 (stereo not drawn) [Compound 39, 2-(4-(3-(4,5-Dihydropyrrolo[1,2-a]quinoxalin-4-yl)pyridin-2-yl)piperazin-1-yl)-N,N-dimethylacetamide]",3.21 ± 0.06 fold,6.60 ± 0.22 fold
"CN(C)CCN1CCN(c2ncccc2C2Oc3cc(CO)ccc3-n3cccc32)CC1 (stereo not drawn) [Compound 72, (4-(2-(4-(2-(Dimethylamino)ethyl)piperazin-1-yl)pyridin-3-yl)-4H-benzo[b]pyrrolo[1,2-d][1,4]oxazin-7-yl)methanol]",1.59 ± 0.03 fold,2.69 fold and 2.69 ± 0.03 fold
"c1ccc2c(c1)NC(c1cccnc1N1CCN(CCN3CCOCC3)CC1)c1cccn1-2 (stereo not drawn) [Compound 49, 4-(2-(4-(3-(4,5-Dihydropyrrolo[1,2-a]quinoxalin-4-yl)pyridin-2-yl)piperazin-1-yl)ethyl)morpholine]",3.02 ± 0.04 fold,5.99 ± 0.21 fold
"OC1CN(c2ncccc2C2Nc3ccccc3-n3cccc32)C1 (stereo not drawn) [Compound 17, 1-(3-(4,5-Dihydropyrrolo[1,2-a]quinoxalin-4-yl)pyridin-2-yl)azetidin-3-ol]",–,1.47 ± 0.10 fold
"c1ccc2c(c1)NC(c1cccnc1N1CCN(CCN3CCC3)CC1)c1cccn1-2 (stereo not drawn) [Compound 45, 4-(2-(4-(2-(Azetidin-1-yl)ethyl)piperazin-1-yl)pyridin-3-yl)-4,5-dihydropyrrolo[1,2-a]quinoxaline]",2.81 ± 0.01 fold,5.85 ± 0.01 fold
"CN(C)CCN1CCN(c2ccccc2C2Nc3ccccc3-n3cccc32)CC1 (stereo not drawn) [Compound 63, 2-(4-(2-(4,5-Dihydropyrrolo[1,2-a]quinoxalin-4-yl)phenyl)piperazin-1-yl)-N,N-dimethylethan-1-amine]",2.62 fold and 2.62 ± 0.34 fold,5.43 fold and 5.43 ± 0.21 fold
"NC(=O)CN1CCN(c2ncccc2C2Nc3ccccc3-n3cccc32)CC1 (stereo not drawn) [Compound 41, 2-(4-(3-(4,5-Dihydropyrrolo[1,2-a]quinoxalin-4-yl)pyridin-2-yl)piperazin-1-yl)acetamide]",1.73 ± 0.12 fold,3.43 ± 0.48 fold
"CN(C)CC(=O)N1CCN(c2ncccc2C2Nc3ccccc3-n3cccc32)CC1 (stereo not drawn) [Compound 43, 1-(4-(3-(4,5-Dihydropyrrolo[1,2-a]quinoxalin-4-yl)pyridin-2-yl)piperazin-1-yl)-2-(dimethylamino)ethan-1-one]",2.31 ± 0.07 fold,3.78 ± 0.15 fold
"CS(=O)(=O)N1CCN(c2ncccc2C2Nc3ccccc3-n3cccc32)CC1 (stereo not drawn) [Compound 23, 4-(2-(4-(Methylsulfonyl)piperazin-1-yl)pyridin-3-yl)-4,5-dihydropyrrolo[1,2-a]quinoxaline]",2.03 ± 0.02 fold,3.63 fold and 3.63 ± 0.10 fold
"c1ccc2c(c1)NC(c1cccnc1N1CCC1)c1cccn1-2 (stereo not drawn) [Compound 16, 4-(2-(Azetidin-1-yl)pyridin-3-yl)-4,5-dihydropyrrolo[1,2-a]quinoxaline]",–,1.38 ± 0.11 fold
"CN(C)CCN1CCN(c2ncccc2C2Oc3ccccc3-n3c2ccc3C(F)(F)F)CC1 (stereo not drawn) [Compound 76, N,N-Dimethyl-2-(4-(3-(1-(trifluoromethyl)-4H-benzo[b]pyrrolo[1,2-d][1,4]oxazin-4-yl)pyridin-2-yl)piperazin-1-yl)ethan-1-amine]",2.69 ± 0.02 fold,4.20 ± 0.06 fold
"CN1C[C@@H]2CN(c3ncccc3C3Nc4ccccc4-n4cccc43)C[C@@H]2C1 (stereo partly drawn) [Compound 20, 4-(2-((3aR,6aS)-5-Methylhexahydropyrrolo[3,4-c]pyrrol-2(1H)-yl)pyridin-3-yl)-4,5-dihydropyrrolo[1,2-a]quinoxaline]",2.00 ± 0.11 fold,4.24 ± 0.04 fold

SMILES,Activation Fold 30 μM,Activation Fold 100 μM
"COCCCN1CCN(c2ncccc2C2Nc3ccccc3-n3cccc32)CC1 (stereo not drawn) [Compound 37, 4-(2-(4-(3-Methoxypropyl)piperazin-1-yl)pyridin-3-yl)-4,5-dihydropyrrolo[1,2-a]quinoxaline]",3.13 ± 0.14 fold,5.02 ± 0.25 fold
"CN(C)c1ncccc1C1Nc2ccccc2-n2cccc21 (stereo not drawn) [Compound 15, 3-(4,5-Dihydropyrrolo[1,2-a]quinoxalin-4-yl)-N,N-dimethylpyridin-2-amine]",–,1.08 ± 0.09 fold
"c1ccc2c(c1)NC(c1cccnc1N1CCC(N3CCCC3)CC1)c1cccn1-2 (stereo not drawn) [Compound 29, 4-(2-(4-(Pyrrolidin-1-yl)piperidin-1-yl)pyridin-3-yl)-4,5-dihydropyrrolo[1,2-a]quinoxaline]",1.89 ± 0.01 fold,3.44 fold and 3.44 ± 0.07 fold
"c1ccc2c(c1)NC(c1cccnc1N1CCCC1)c1cccn1-2 (stereo not drawn) [Compound 18, 4-(2-(Pyrrolidin-1-yl)pyridin-3-yl)-4,5-dihydropyrrolo[1,2-a]quinoxaline]",–,1.22 ± 0.03 fold
"N#CCN1CCN(c2ncccc2C2Nc3ccccc3-n3cccc32)CC1 (stereo not drawn) [Compound 40, 2-(4-(3-(4,5-Dihydropyrrolo[1,2-a]quinoxalin-4-yl)pyridin-2-yl)piperazin-1-yl)acetonitrile]",2.37 ± 0.04 fold,4.74 ± 0.26 fold
"Cc1ccc2c(c1)-n1cccc1C(c1cccnc1N1CCN(CCN(C)C)CC1)O2 (stereo not drawn) [Compound 68, N,N-Dimethyl-2-(4-(3-(8-methyl-4H-benzo[b]pyrrolo[1,2-d][1,4]oxazin-4-yl)pyridin-2-yl)piperazin-1-yl)ethan-1-amine]",2.99 ± 0.05 fold,4.56 ± 0.04 fold
"O=C1CCCN1CCN1CCN(c2ncccc2C2Nc3ccccc3-n3cccc32)CC1 (stereo not drawn) [Compound 48, 1-(2-(4-(3-(4,5-Dihydropyrrolo[1,2-a]quinoxalin-4-yl)pyridin-2-yl)piperazin-1-yl)ethyl)pyrrolidin-2-one]",3.48 ± 0.02 fold,5.64 ± 0.43 fold
"CN1CCN(c2ncccc2C2Nc3ccccc3-n3cccc32)CC1 (stereo not drawn) [Compound 21, 4-(2-(4-Methylpiperazin-1-yl)pyridin-3-yl)-4,5-dihydropyrrolo[1,2-a]quinoxaline]",2.44 fold and 2.44 ± 0.04 fold,4.62 fold and 4.62 ± 0.12 fold
"COC(=O)c1ccc2c(c1)OC(c1cccnc1N1CCN(CCN(C)C)CC1)c1cccn1-2 (stereo not drawn) [Compound 71, Methyl 4-(2-(4-(2-(dimethylamino)ethyl)piperazin-1-yl)pyridin-3-yl)-4H-benzo[b]pyrrolo[1,2-d][1,4]oxazine-7-carboxylate]",4.16 ± 0.18 fold,4.82 ± 0.14 fold
"OC1CCN(c2ncccc2C2Nc3ccccc3-n3cccc32)CC1 (stereo not drawn) [Compound 27, 1-(3-(4,5-Dihydropyrrolo[1,2-a]quinoxalin-4-yl)pyridin-2-yl)piperidin-4-ol]",1.29 ± 0.05 fold,~2 fold and 2.38 ± 0.15 fold
"CC(=O)N1CCN(c2ncccc2C2Nc3ccccc3-n3cccc32)CC1 (stereo not drawn) [Compound 22, 1-(4-(3-(4,5-Dihydropyrrolo[1,2-a]quinoxalin-4-yl)pyridin-2-yl)piperazin-1-yl)ethan-1-one]",1.60 ± 0.01 fold,2.74 fold and 2.74 ± 0.10 fold
"CN(C)CCN1CCN(c2ncccc2C2Oc3ccccc3-n3cccc32)CC1 (stereo not drawn) [Compound 66, 2-(4-(3-(4H-Benzo[b]pyrrolo[1,2-d][1,4]oxazin-4-yl)pyridin-2-yl)piperazin-1-yl)-N,N-dimethylethan-1-amine]",2.67 fold and 2.67 ± 0.01 fold,4.23 fold and 4.23 ± 0.22 fold
"CN1CCCN(c2ncccc2C2Nc3ccccc3-n3cccc32)CC1 (stereo not drawn) [Compound 19, 4-(2-(4-Methyl-1,4-diazepan-1-yl)pyridin-3-yl)-4,5-dihydropyrrolo[1,2-a]quinoxaline]",2.18 ± 0.02 fold,4.23 ± 0.06 fold
"O=C(N1CCN(c2ncccc2C2Nc3ccccc3-n3cccc32)CC1)N1CC(O)C1 (stereo not drawn) [Compound 44, (4-(3-(4,5-Dihydropyrrolo[1,2-a]quinoxalin-4-yl)pyridin-2-yl)piperazin-1-yl)(3-hydroxyazetidin-1-yl)methanone]",2.67 fold and 2.67 ± 0.19 fold,5.26 fold and 5.26 ± 0.13 fold
"O=S1(=O)CCN(c2ncccc2C2Nc3ccccc3-n3cccc32)CC1 (stereo not drawn) [Compound 26, 4-(3-(4,5-Dihydropyrrolo[1,2-a]quinoxalin-4-yl)pyridin-2-yl)thiomorpholine 1,1-dioxide]",1.32 ± 0.01 fold,~2 fold and 2.24 ± 0.09 fold
